Assays:
Type in all cases: cell-based, mouse
[1] = test system: β-galactosidase in CMV-LacZ C2C12 myotubes; assay: CMV-LacZ secondary screen in C2C12 myotubes (β-Gal stabilizing assay); settings: for CMV-LACZ in Myotubes, signal relative to DMSO: C2C12 CMV-LacZ myotubes, fold relative to DMSO; for CMV-LACZ in Myotubes, value relative to DMSO: SU9516 analogs, C2C12 CMV-LacZ, N=2
Summary of the method: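 β-Gal level was the read-out, measured in a clonal C2C12 line expressing LacZ from a CMV promoter. Dose-response curves used six concentrations, 0.5 μM up to 40 μM, with duplicate points.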

[2] = test system: β-galactosidase in CMV-LacZ C2C12 myoblasts; assay: CMV-LacZ secondary screen in C2C12 myoblasts (β-Gal stabilizing assay); settings: for CMV-LACZ in Myoblasts (β-galactosidase activity relative to DMSO): CMV-LacZ C2C12 myoblasts; for CMV-LACZ in Myoblasts, value relative to DMSO: SU9516 analogs, C2C12 CMV-LacZ, N=2
Summary of the method: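 A secondary screen identifies compounds that stabilize β-gal independently of the native promoter, using CMV-LacZ C2C12 cells. Curves span 0.5–40 μM at six levels, in duplicate.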

[3] = test system: α7 integrin (LacZ reporter in α7βgal+/− myoblasts); assay: Myoblast α7+/LacZ integrin FDG assay (Burkin assay in myoblasts, 96-well); settings: 96-well; for Burkin Assay in Myoblasts, signal relative to DMSO: α7+/LacZ myoblasts; for Burkin Assay in Myoblasts, value relative to DMSO: SU9516 analogs, N=3-6
[4] = test system: α7 integrin (LacZ reporter in α7+/LacZ myotubes); assay: Myotube α7 integrin FDG assay (Burkin assay in myotubes, 96-well); settings: for Burkin Assay in Myotubes, value relative to DMSO: SU9516 analogs, 96-well, N=3-6

OC(c1nc2ccc(F)cc2[nH]1)C(O)c1nc2ccc(F)cc2[nH]1 (stereo not drawn) [MLS001182368-01]
CMV-LACZ in Myotubes, signal relative to DMSO ([1]; 0.5 uM): 0.8667 | CMV-LACZ in Myotubes, signal relative to DMSO ([1]; 1 uM): 1.0619 | CMV-LACZ in Myotubes, signal relative to DMSO ([1]; 5 uM): 0.8931 | CMV-LACZ in Myotubes, signal relative to DMSO ([1]; 10 uM): 0.8690 | CMV-LACZ in Myotubes, signal relative to DMSO ([1]; 20 uM): 0.9953 | CMV-LACZ in Myotubes, signal relative to DMSO ([1]; 40 uM): 1.0318 | CMV-LACZ in Myoblasts (β-galactosidase activity relative to DMSO) ([2]; 0.5 uM): 0.9571 | CMV-LACZ in Myoblasts (β-galactosidase activity relative to DMSO) ([2]; 1 uM): 0.8783 | CMV-LACZ in Myoblasts (β-galactosidase activity relative to DMSO) ([2]; 5 uM): 1.0528 | CMV-LACZ in Myoblasts (β-galactosidase activity relative to DMSO) ([2]; 10 uM): 0.9225 | CMV-LACZ in Myoblasts (β-galactosidase activity relative to DMSO) ([2]; 20 uM): 1.2322 | CMV-LACZ in Myoblasts (β-galactosidase activity relative to DMSO) ([2]; 40 uM): 1.1615 | Burkin Assay in Myoblasts, signal relative to DMSO ([3]; 0.5 uM): 1.081 | Burkin Assay in Myoblasts, signal relative to DMSO ([3]; 1 uM): 1.215 | Burkin Assay in Myoblasts, signal relative to DMSO ([3]; 5 uM): 0.914 | Burkin Assay in Myoblasts, signal relative to DMSO ([3]; 10 uM): 0.8945 | Burkin Assay in Myoblasts, signal relative to DMSO ([3]; 20 uM): 1.001 | Burkin Assay in Myoblasts, signal relative to DMSO ([3]; 40 uM): 0.8952 | Burkin Assay in Myotubes, α7 integrin LacZ reporter signal relative to DMSO ([4]; 0.5 uM): 1.044 | Burkin Assay in Myotubes, α7 integrin LacZ reporter signal relative to DMSO ([4]; 1 uM): 1.0792 | Burkin Assay in Myotubes, α7 integrin LacZ reporter signal relative to DMSO ([4]; 5 uM): 1.2117 | Burkin Assay in Myotubes, α7 integrin LacZ reporter signal relative to DMSO ([4]; 10 uM): 1.02 | Burkin Assay in Myotubes, α7 integrin LacZ reporter signal relative to DMSO ([4]; 20 uM): 0.9097 | Burkin Assay in Myotubes, α7 integrin LacZ reporter signal relative to DMSO ([4]; 40 uM): 0.9193

CN1CCN(c2ccccc2/C=C2/C(=O)Nc3ccccc32)CC1 [MLS001182377-01]
CMV-LACZ in Myotubes, value relative to DMSO ([1]; 0.5 uM): 0.7762 | CMV-LACZ in Myotubes, value relative to DMSO ([1]; 1 uM): 0.8105 | CMV-LACZ in Myotubes, value relative to DMSO ([1]; 5 uM): 0.9608 | CMV-LACZ in Myotubes, value relative to DMSO ([1]; 10 uM): 1.0589 | CMV-LACZ in Myotubes, value relative to DMSO ([1]; 20 uM): 1.0305 | CMV-LACZ in Myotubes, value relative to DMSO ([1]; 40 uM): 1.0263 | CMV-LACZ in Myoblasts, value relative to DMSO ([2]; 0.5 uM): 1.1229 | CMV-LACZ in Myoblasts, value relative to DMSO ([2]; 1 uM): 1.1646 | CMV-LACZ in Myoblasts, value relative to DMSO ([2]; 5 uM): 0.9113 | CMV-LACZ in Myoblasts, value relative to DMSO ([2]; 10 uM): 0.9294 | CMV-LACZ in Myoblasts, value relative to DMSO ([2]; 20 uM): 0.4441 | CMV-LACZ in Myoblasts, value relative to DMSO ([2]; 40 uM): 0.4170 | Burkin Assay in Myoblasts, value relative to DMSO ([3]; 0.5 uM): 1.179 | Burkin Assay in Myoblasts, value relative to DMSO ([3]; 1 uM): 1.045 | Burkin Assay in Myoblasts, value relative to DMSO ([3]; 5 uM): 0.915 | Burkin Assay in Myoblasts, value relative to DMSO ([3]; 10 uM): 0.9061 | Burkin Assay in Myoblasts, value relative to DMSO ([3]; 20 uM): 0.8744 | Burkin Assay in Myoblasts, value relative to DMSO ([3]; 40 uM): 0.6176 | Burkin Assay in Myotubes, value relative to DMSO ([4]; 0.5 uM): 1.015 | Burkin Assay in Myotubes, value relative to DMSO ([4]; 1 uM): 1.021 | Burkin Assay in Myotubes, value relative to DMSO ([4]; 5 uM): 0.9372 | Burkin Assay in Myotubes, value relative to DMSO ([4]; 10 uM): 0.9389 | Burkin Assay in Myotubes, value relative to DMSO ([4]; 20 uM): 0.8654 | Burkin Assay in Myotubes, value relative to DMSO ([4]; 40 uM): 0.9149

COc1cc([N+](=O)[O-])cc(/C=N/NC(=O)C(O)(c2ccccc2)c2ccccc2)c1O [MLS001183575-01]
CMV-LACZ in Myotubes, signal relative to DMSO ([1]; 0.5 uM): 0.9648 | CMV-LACZ in Myotubes, signal relative to DMSO ([1]; 1 uM): 0.8657 | CMV-LACZ in Myotubes, signal relative to DMSO ([1]; 5 uM): 0.7726 | CMV-LACZ in Myotubes, signal relative to DMSO ([1]; 10 uM): 0.9136 | CMV-LACZ in Myotubes, signal relative to DMSO ([1]; 20 uM): 0.8230 | CMV-LACZ in Myotubes, signal relative to DMSO ([1]; 40 uM): 1.1230 | CMV-LACZ in Myoblasts (β-galactosidase activity relative to DMSO) ([2]; 0.5 uM): 1.1603 | CMV-LACZ in Myoblasts (β-galactosidase activity relative to DMSO) ([2]; 1 uM): 1.2440 | CMV-LACZ in Myoblasts (β-galactosidase activity relative to DMSO) ([2]; 5 uM): 0.8972 | CMV-LACZ in Myoblasts (β-galactosidase activity relative to DMSO) ([2]; 10 uM): 0.7762 | CMV-LACZ in Myoblasts (β-galactosidase activity relative to DMSO) ([2]; 20 uM): 1.2825 | CMV-LACZ in Myoblasts (β-galactosidase activity relative to DMSO) ([2]; 40 uM): 0.8856 | Burkin Assay in Myoblasts, signal relative to DMSO ([3]; 0.5 uM): 0.9644 | Burkin Assay in Myoblasts, signal relative to DMSO ([3]; 1 uM): 1.009 | Burkin Assay in Myoblasts, signal relative to DMSO ([3]; 5 uM): 0.8981 | Burkin Assay in Myoblasts, signal relative to DMSO ([3]; 10 uM): 0.7946 | Burkin Assay in Myoblasts, signal relative to DMSO ([3]; 20 uM): 0.6916 | Burkin Assay in Myoblasts, signal relative to DMSO ([3]; 40 uM): 0.5338 | Burkin Assay in Myotubes, α7 integrin LacZ reporter signal relative to DMSO ([4]; 0.5 uM): 1.0887 | Burkin Assay in Myotubes, α7 integrin LacZ reporter signal relative to DMSO ([4]; 1 uM): 0.9681 | Burkin Assay in Myotubes, α7 integrin LacZ reporter signal relative to DMSO ([4]; 5 uM): 0.8172 | Burkin Assay in Myotubes, α7 integrin LacZ reporter signal relative to DMSO ([4]; 10 uM): 0.7938 | Burkin Assay in Myotubes, α7 integrin LacZ reporter signal relative to DMSO ([4]; 20 uM): 0.7378 | Burkin Assay in Myotubes, α7 integrin LacZ reporter signal relative to DMSO ([4]; 40 uM): 0.6868

Reference: US9980943B2, “Methods of treating muscular dystrophy” (BOARD OF REGENTS OF THE NEVADA SYSTEM OF HIGHER EDUCATION, …, priority 2013, dated 2018)
